Measured values published in ChEMBL document CHEMBL3507680, “University of Dundee, Gates Library screen for HepG2 cell viability”.

assay: Human HepG2 cell viability assay in 384 well format; type: toxicity, cell-based; design: dose 125 nL, time 70.5 hour; cytotoxicity at 70.5 h: concentration not given beside the values; settings: HepG2 cells, read-out: Inhibition

| SMILES | cytotoxicity at 70.5 h |
| --- | --- |
| COc1ccc(C(C)N2CCC(CNC(C)=O)CC2)cc1Cl (configuration not stated) | -1.84% |
| CCc1nc(CCNC(=O)Nc2cc(C(N)=O)ccc2OC)cs1 | -12.4% |
| Cn1c(C(F)(F)F)nn(CCNC(=O)c2nc3ccccc3s2)c1=O | -8.57% |
| CCn1cnnc1CNC(=O)N1CCN(CCc2ccccc2)CC1 | -2.4% |
| CNC(=O)N1C[C@H]2CC[C@@]3(N=C(c4ccccc4)NC3=O)[C@H]2C1 | -6.95% |
| COc1cc(COCC2CCN(Cc3ccccn3)CC2)cc(OC)c1 | -8.26% |
| Cc1ccc(C(CNC(=O)NCc2ccccn2)N2CCOCC2)o1 (configuration not stated) | 13.1% |
| O=C(CN(Cc1cccs1)C1CCS(=O)(=O)C1)NC1CCCCC1 (configuration not stated) | 26.4% |
| COCC(=O)N1CCN(C(=O)c2cccs2)[C@@H](C(=O)OC)C1 | -5% |
| O=C(NCc1nnc2n1CCC2)N1CCC2(CCCCC2)CC1 | -12.2% |
| COc1ncccc1CN1CC[C@@]2(O)CCN(C(=O)C3CCC3)C[C@H]2C1 | -5.11% |
| COc1cc(C)nc(N2CCN(C(C)c3nc(C)no3)CC2)n1 (configuration not stated) | -6.32% |
| COCCNS(=O)(=O)c1ccc(CNc2ncccc2C#N)cc1 | -12.6% |
| Cc1cc(CCC(=O)N2CCC(O)CC2)ccc1Br | -0.947% |
| COc1cccc(C(=O)NC(C)CCN2CCOCC2)c1F (configuration not stated) | -5.81% |
| CC1CN(C2CCN(Cc3nccn3CC(F)(F)F)CC2)CCO1 (configuration not stated) | -9.54% |
| COc1ccc(Cl)cc1C(=O)NCC1CCN(C(=O)c2ccoc2)CC1 | -15.3% |
| CCCc1noc(CCC(=O)N2CCCC2c2ccc(OC)cc2)n1 (configuration not stated) | -16.8% |
| Cc1ccc(CC(=O)N2CC[C@@H]3CN(CCN(C)C)CCO[C@@H]3C2)cc1 | -8.7% |
| O=C(Cc1ccccc1)NCc1ccc(-c2ccccc2C(=O)O)cn1 | 1.3% |
| Cn1ccc2ccc(C(=O)N3CCC[C@H]3C(=O)N3CCOCC3)cc21 | -11.1% |
| CCCn1cc(NC(=O)c2ccncc2)ccc1=O | -8.23% |
| CC1CCCCN1C(=O)CCc1nnc(-c2ccccc2)o1 (configuration not stated) | -1.68% |

| SMILES | cytotoxicity at 70.5 h |
| --- | --- |
| CC(CCc1ccccc1)NC(=O)CNCCCN(C)C (configuration not stated) | -3.07% |
| Cc1cc(C(=O)N(C)C)nc(C2(C)CCCN2c2ccccc2)n1 (configuration not stated) | -2.68% |
| COc1ccc(CNC(=O)CCCc2nnc3ccc(OC)nn23)cc1 | -14.6% |
| CNC(=O)NC(=O)CCSc1ccccc1C | -0.594% |
| O=C(c1ccoc1)N1CCOCC2(CCN(C3CCOCC3)C2)C1 (configuration not stated) | -2.14% |
| Cn1nc(C(=O)N2CCSCC2)cc1NC(=O)c1ccccc1 | -1.31% |
| Cc1cnn(CC2CN(CC(=O)Nc3ccnn3C(C)C)CCO2)c1 (configuration not stated) | -6.91% |
| COc1nn(C)c2c1CCCN(C(=O)COc1ccccc1)C2 | -104% |
| COc1nn(C)c2c1CCCN(C(=O)c1ccc[nH]1)C2 | -99.5% |
| Cc1cc(CNc2ccc(C(=O)N3CCc4ccccc43)cn2)on1 | -1.24% |
| CCNC(=O)NC1CCC(Oc2ccccc2C#N)CC1 (configuration not stated) | 9.88% |
| CNc1nc(C)cc(N2CCC(C(=O)O)(n3ccc(C(C)C)n3)CC2)n1 | -4.47% |
| CC(=O)Nc1ccc(CN2CCc3[nH]cnc3C2c2ccc(C)o2)cc1 (configuration not stated) | -6.39% |
| CC(=O)Nc1ncc(S(=O)(=O)Nc2ccccc2)s1 | -11.1% |
| CCOc1cccc(C(=O)N2CCC3(CC2)[C@H](O)C[C@@H]3OC)c1 | 0.338% |
| CC(=O)N1CC(C)CN(Cc2ccon2)c2ccccc21 (configuration not stated) | -4.58% |
| Cc1cc(NC(=O)NC2CCN(C(C)C)CC2)c2ncccc2c1 | -85.3% |
| CC1(c2ccccc2)CCCN(C(=O)c2ccn3nnnc3c2)C1 (configuration not stated) | -0.523% |
| CC(C)n1cnnc1CNC(=O)c1cnn(-c2ccccc2)c1 | 10% |
| Cc1ccc(CN2CCCC2(C(N)=O)c2cnccn2)c(C)c1 (configuration not stated) | -0.964% |
| O=S1(=O)CCC(N(Cc2nc(-c3ccccn3)no2)Cc2cccs2)C1 (configuration not stated) | -4.77% |
| CN(CC(=O)N1CCC(Oc2ccccc2)CC1)c1cnccn1 | -13.9% |
| COCC1CC2(CCN(Cc3cccc(C#N)c3)CC2)CN1C(C)C (configuration not stated) | -4.89% |

| SMILES | cytotoxicity at 70.5 h |
| --- | --- |
| O=S(=O)(NCCCN1CCCC1)c1cc(F)cc(F)c1 | 27.2% |
| CC(C)(C)CC(=O)NC[C@H]1OC[C@@H](NC2CCC(F)(F)CC2)[C@@H]1O | -5.07% |
| COC(=O)c1ccc(S(=O)(=O)N(C)CC(N)=O)c(Cl)c1 | -3.22% |
| O=C1C(NCc2nnc3n2CCCC3)CCCN1c1ccccc1 (configuration not stated) | -7.11% |
| Cc1cc(C(=O)N2CCC3(CC2)CC(c2cccnc2)C(=O)N3C)no1 (configuration not stated) | 1.74% |
| CNC(=O)Cc1ccc(NC(=O)NCc2ncc(C)s2)cc1 | 8.85% |
| Cn1c2ccccc2c2ncn(CCN3CCOCC3)c(=O)c21 | 11.8% |
| Cn1cnnc1C1CCCN(C(=O)NCCOc2ccccc2)C1 (configuration not stated) | 40.2% |
| O=C(c1ccc2c(c1)CCCC2)N1CCCC(n2cncn2)C1 (configuration not stated) | -4.56% |
| CC(C)n1cc(C(=O)NC2CCS(=O)(=O)C2)c2ccccc2c1=O (configuration not stated) | -14.3% |
| NC(=O)C1(c2cnccn2)CCCN1Cc1ccc(F)c(F)c1 (configuration not stated) | 7.58% |
| CC1COc2ccccc2N1C(=O)c1cscn1 (configuration not stated) | -9.82% |
| O=C(NC1CCC(C(=O)N2CCSCC2)CC1)N1CCOCC1 (configuration not stated) | -5.82% |
| c1ccc(O[C@@H]2CO[C@@]3(CCCN(CC4CCOCC4)C3)C2)nc1 | -8.71% |
| CN1[C@H](Cn2cccn2)C[C@@H]2CN(Cc3cccs3)CC[C@@H]21 | 18.9% |
| O=C(O)C1CCCN1c1nc(-c2ccc(Cl)c(Cl)c2)cc(C(F)(F)F)n1 (configuration not stated) | -3.95% |
| Cc1ccc(C(=O)N2CCC(=O)N(CC3CC3)C(C(C)C)C2)c(=O)[nH]1 (configuration not stated) | 4.74% |
| CN(C)S(=O)(=O)N1C[C@@H]2CC[C@H](C1)N(Cc1cccc(C#N)c1)C2 | -8.84% |
| COc1ncc(Cl)c(NCc2ccc(C(=O)N(C)C)cc2)n1 | 27.7% |
| CCN(CCc1nc2cc(C)ccc2[nH]1)C(=O)COC | -4.93% |
| CNC(=O)c1ccc(OC)c(NCc2noc(-c3ccsc3)n2)c1 | -11.3% |
| CC(C)Cc1cc(C(=O)N2CCCC(n3cncn3)C2)[nH]n1 (configuration not stated) | -7.4% |
| COCCN1CCC(C(=O)N(C)Cc2c[nH]c3ccc(C)cc23)C1 (configuration not stated) | -8.11% |

| SMILES | cytotoxicity at 70.5 h |
| --- | --- |
| CC(C)COCC(NC(=O)Cc1ccn[nH]1)c1ccco1 (configuration not stated) | -6.61% |
| CNC(=O)[C@@]12CCO[C@@H]1CCN(Cc1cccc(C)c1)C2 | -12.5% |
| O=C(CC(SC1CCCCC1)C(=O)O)c1ccc(Br)cc1 (configuration not stated) | 0.38% |
| CC1=Nc2c(c(=O)[nH]n2C2CCCC2)C(c2cccc(O)c2)S1 (configuration not stated) | 3.38% |
| CN(C)CC1CSCCCN1C(=O)c1ccc(C(C)(C)C)cc1 (configuration not stated) | -0.949% |
| CC(=O)c1cc(CN2C[C@H]3CC[C@@H]2CN(Cc2c(C)noc2C)C3)cs1 | -8.51% |
| CC(=O)N1CCC(c2ccnc(Nc3cncnc3)n2)CC1 | -8.15% |
| Cc1nc(CNC(=O)NCc2ccc(OCC3CC3)nc2)cs1 | -5.23% |
| O=C(NC1CCN(C2CC2)CC1)c1cc(Cl)ccc1-n1cnnn1 | 8.23% |
| Cc1nc2c(c(NC(C)C)n1)CCN(C1CCOCC1)CC2 | 2.46% |
| Cc1nc(CN(C)S(=O)(=O)c2ccccc2Br)no1 | -3.75% |
| CCc1nn(C)c2[nH]nc(NC(=O)c3cccnc3NC(C)C)c12 | -50.3% |
| Cn1nccc1CNC(=O)CCn1nc(C(F)(F)F)cc1C1CC1 | -4.88% |
| CN1CCCN(c2nccc(-c3c[nH]nc3-c3ccncc3)n2)CC1 | -3.42% |
| COCC(C)NCc1nc(-c2ccc(C)cc2)c(-c2ccccn2)[nH]1 (configuration not stated) | -1.81% |
| CC(C)NC1CCCc2nc(-c3ccccc3)ncc21 (configuration not stated) | -14.3% |
| O=S(=O)(NCCNc1ccc(-n2cccc2)nn1)c1cccs1 | 3.82% |
| Cc1cccc2[nH]c(-c3cn(C4CCNCC4)nn3)nc12 | -3.11% |
| Cc1noc(C)c1-c1cccc(CC2CCN(C(=O)c3cscn3)C2)n1 (configuration not stated) | -5.81% |
| CCC(=O)N1CCN(C(=O)Nc2cccc(N3CCOCC3)c2)CC1 | 2.85% |
| Cc1cnn(C2CCCN(C(=O)Cc3n[nH]c4ccccc34)C2)c1 (configuration not stated) | 0.337% |
| Cc1cn2c(CN(C)C(=O)c3cnc(N)c(Cl)c3)c(C)nc2s1 | 11.9% |
| Cn1c(CN2CCOC(CNc3cccnn3)C2)nnc1C1CC1 (configuration not stated) | -2.31% |

| SMILES | cytotoxicity at 70.5 h |
| --- | --- |
| Cn1cnnc1CCNC(=O)c1ccccc1OC1CCC1 | 7.31% |
| COCCc1noc(Cn2ccc3ccccc3c2=O)n1 | -0.672% |
| CC(=O)c1ccccc1C(=O)NCC1(CO)CC1 | 4.58% |
| Cc1nc(CCNC(=O)C2CC(=O)N(C(C)C)C2)sc1C (configuration not stated) | -10.3% |
| CN(CC1(CO)CCCC1)[C@@H]1c2ccccc2C2(CCNCC2)[C@H]1O | -3.86% |
| O=C(CSc1ccccc1)N1CCc2c(ncnc2N2CCOCC2)C1 | 0.558% |
| Cc1nccn1-c1cc(CNC(=O)N2CCSCC2)ccn1 | -3.48% |
| CN1C(=O)CC(C(=O)O)C12CCN(Cc1ccc(F)cc1Cl)CC2 (configuration not stated) | -9.57% |
| O=C(c1cnc(COc2ccccc2)nc1O)N1CCC(F)(F)CC1 | -5.82% |
| O=C(NCc1ccc(Cl)cc1)N1CCN(CC(O)C2CC2)CC1 (configuration not stated) | -8.1% |
| COc1ccc(CN2CCO[C@H]3[C@H](Oc4ccccn4)CC[C@@H]32)cc1 | -2.38% |
| Cc1cnc(N2CCCn3c(nnc3CN(C)C(C)C)C2)nc1 | -1.83% |
| CC(C)Cc1cc(C(=O)N2CCC[C@H]2C(=O)N2CCOCC2)on1 | -9.69% |
| COCCNC(=O)Cn1c(-c2ccc(F)cc2)nc(C)c(CCO)c1=O | -2.18% |
| Cc1cc(NC(=O)CCN(CC2CCOC2)C2CC2)no1 (configuration not stated) | -9.35% |
| Cc1nc(C2CCCN2C(=O)CCCOc2ccccc2C)no1 (configuration not stated) | -8.51% |
| CNC(=O)C1CCC2(CCN(c3ncc(C)cn3)CC2)CO1 (configuration not stated) | 4.35% |
| O=C(NCCN1CCCCC1)c1ccoc1 | 17.6% |
| CC(CN1CCCC1)C(=O)NCC1CCN(c2cnn(C)c(=O)c2)CC1 (configuration not stated) | -5.06% |
| CCCc1nc(NC2(COC)CCCC2)c2cnn(C)c2n1 | -4.69% |
